# The source made the active and inactive calls. No cut-off for these calls is given here.
# Columns and labels:
# Mucor circinelloides [1] = test: Antifungal activity against Mucor circinelloides R7B wild type strain assessed as reduction in spore germination at 25 ug/ml relative to control; format: functional; set-up: scale not given: the % may be the effect or the level left; details: dose 25 µg/ml
# Mucor circinelloides [2] = test: Antifungal activity against Mucor circinelloides M5 strain assessed as reduction in spore germination at 25 ug/ml relative to control; format: functional; set-up: scale not given: the % may be the effect or the level left; details: dose 25 µg/ml
# Mucor circinelloides [3] = test: Antifungal activity against Mucor circinelloides R7B wild type strain assessed as reduction in spore germination at 50 ug/ml relative to control; format: functional; set-up: scale not given: the % may be the effect or the level left; details: dose 50 µg/ml
# Mucor circinelloides [4] = test: Antifungal activity against Mucor circinelloides M5 strain assessed as reduction in spore germination at 50 ug/ml relative to control; format: functional; set-up: scale not given: the % may be the effect or the level left; details: dose 50 µg/ml
# Mucor circinelloides [5] = test: Antifungal activity against Mucor circinelloides R7B wild type strain assessed as reduction in spore germination at 150 ug/ml relative to control; format: functional; set-up: scale not given: the % may be the effect or the level left; details: dose 150 µg/ml
# Mucor circinelloides [6] = test: Antifungal activity against Mucor circinelloides M5 strain assessed as reduction in spore germination at 150 ug/ml relative to control; format: functional; set-up: scale not given: the % may be the effect or the level left; details: dose 150 µg/ml
# Microsporum canis [7] = test: Antifungal activity against Microsporum canis clinical isolate 1 assessed as reduction in fungal growth by broth dilution method; format: functional
# Microsporum canis [8] = test: Antifungal activity against Microsporum canis clinical isolate 2 assessed as reduction in fungal growth by broth dilution method; format: functional
# Microsporum canis [9] = test: Antifungal activity against Microsporum canis clinical isolate 3 assessed as reduction in fungal growth by broth dilution method; format: functional
# Nannizzia gypsea [10] = test: Antifungal activity against Microsporum gypseum clinical isolate 1 assessed as reduction in fungal growth by broth dilution method; format: functional
# Nannizzia gypsea [11] = test: Antifungal activity against Microsporum gypseum clinical isolate 2 assessed as reduction in fungal growth by broth dilution method; format: functional
# Mucor circinelloides [12] = test: Antifungal activity against Mucor circinelloides M5 strain assessed as reduction in fungal growth by broth dilution method; format: functional
# [13] = tested on: Trichophyton mentagrophytes; test: Antifungal activity against Trichophyton mentagrophytes clinical isolate 1 assessed as reduction in fungal growth by broth dilution method; format: functional
# [14] = tested on: Trichophyton mentagrophytes; test: Antifungal activity against Trichophyton mentagrophytes clinical isolate 2 assessed as reduction in fungal growth by broth dilution method; format: functional
# [15] = tested on: Trichophyton mentagrophytes; test: Antifungal activity against Trichophyton mentagrophytes clinical isolate 3 assessed as reduction in fungal growth by broth dilution method; format: functional
# Trichophyton rubrum [16] = test: Antifungal activity against Trichophyton rubrum clinical isolate 1 assessed as reduction in fungal growth by broth dilution method; format: functional
# Trichophyton rubrum [17] = test: Antifungal activity against Trichophyton rubrum clinical isolate 2 assessed as reduction in fungal growth by broth dilution method; format: functional
# Epidermophyton floccosum = test: Antifungal activity against Epidermophyton floccosum clinical isolate 1 assessed as reduction in fungal growth by broth dilution method; format: functional
# Aspergillus nidulans [18] = test: Antifungal activity against Aspergillus nidulans clinical isolate 1 assessed as reduction in fungal growth by broth dilution method; format: functional
# Aspergillus nidulans [19] = test: Antifungal activity against Aspergillus nidulans clinical isolate 2 assessed as reduction in fungal growth by broth dilution method; format: functional
# Aspergillus niger = test: Antifungal activity against Aspergillus niger clinical isolate 1 assessed as reduction in fungal growth by broth dilution method; format: functional
# Mucor circinelloides [20] = test: Antifungal activity against Mucor circinelloides R7B wild type strain assessed as reduction in fungal growth by broth dilution method; format: functional
# [21] = Cytotoxicity against mouse NIH/3T3 cells assessed as reduction in cell viability at 25 ug/ml incubated for 48 hrs by MTT assay (reference value: 93.8 +/- 4.9 %); format: toxicity, cell-based, NIH3T3; details: at 25 µg/mL, read-out: Activity
# [22] = Cytotoxicity against mouse NIH/3T3 cells assessed as reduction in cell viability at 50 ug/ml incubated for 48 hrs by MTT assay (reference value: 93.8 +/- 4.9 %); format: toxicity, cell-based, NIH3T3; details: at 50 µg/mL, read-out: Activity
# [23] = Cytotoxicity against mouse NIH/3T3 cells assessed as reduction in cell viability at 100 ug/ml incubated for 48 hrs by MTT assay (reference value: 93.8 +/- 4.9 %); format: toxicity, cell-based, NIH3T3; details: at 100 µg/mL, read-out: Activity
# [24] = Cytotoxicity against mouse NIH/3T3 cells assessed as reduction in cell viability at 150 ug/ml incubated for 48 hrs by MTT assay (reference value: 93.8 +/- 4.9 %); format: toxicity, cell-based, NIH3T3; details: at 150 µg/mL, read-out: Activity
# [25] = Cytotoxicity against mouse NIH/3T3 cells assessed as reduction in cell viability at 200 ug/ml incubated for 48 hrs by MTT assay (reference value: 93.8 +/- 4.9 %); format: toxicity, cell-based, NIH3T3; details: at 200 µg/mL, read-out: Activity
# [26] = target: T1, Lanosterol 14-alpha demethylase (Mus musculus, UniProt Q8K0C4); test: Inhibition of CYP51 in mouse NIH/3T3 cells assessed as specific enzymatic activity at 25 ug/ml incubated for 48 hrs by ELISA analysis; format: ADME, cell-based; details: nih/3t3, 48 h, dose 25 µg/ml
# T1 sequence (Q8K0C4 whole entry): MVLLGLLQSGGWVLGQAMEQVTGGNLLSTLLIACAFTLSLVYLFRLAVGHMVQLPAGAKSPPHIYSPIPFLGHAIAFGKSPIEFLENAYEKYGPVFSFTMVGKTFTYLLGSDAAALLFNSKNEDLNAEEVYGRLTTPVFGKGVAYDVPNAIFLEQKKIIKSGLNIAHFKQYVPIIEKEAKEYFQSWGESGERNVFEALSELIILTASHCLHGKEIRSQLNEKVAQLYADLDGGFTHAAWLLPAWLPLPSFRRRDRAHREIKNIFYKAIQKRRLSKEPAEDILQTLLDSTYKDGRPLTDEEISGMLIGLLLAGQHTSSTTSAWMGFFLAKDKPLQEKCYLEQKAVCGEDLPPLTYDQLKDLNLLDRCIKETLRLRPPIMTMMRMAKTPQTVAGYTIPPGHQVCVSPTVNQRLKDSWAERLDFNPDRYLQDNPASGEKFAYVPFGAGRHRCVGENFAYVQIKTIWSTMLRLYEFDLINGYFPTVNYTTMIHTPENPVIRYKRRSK
# [27] = target: T1, Lanosterol 14-alpha demethylase; test: Inhibition of CYP51 in mouse NIH/3T3 cells assessed as specific enzymatic activity at 50 ug/ml incubated for 48 hrs by ELISA analysis; format: ADME, cell-based; details: nih/3t3, 48 h, dose 50 µg/ml
# [28] = target: T1, Lanosterol 14-alpha demethylase; test: Inhibition of CYP51 in mouse NIH/3T3 cells assessed as specific enzymatic activity at 100 ug/ml incubated for 48 hrs by ELISA analysis; format: ADME, cell-based; details: nih/3t3, 48 h, dose 100 µg/ml
# [29] = target: T1, Lanosterol 14-alpha demethylase; test: Inhibition of CYP51 in mouse NIH/3T3 cells assessed as specific enzymatic activity at 150 ug/ml incubated for 48 hrs by ELISA analysis; format: ADME, cell-based; details: nih/3t3, 48 h, dose 150 µg/ml
# [30] = target: T1, Lanosterol 14-alpha demethylase; test: Inhibition of CYP51 in mouse NIH/3T3 cells assessed as specific enzymatic activity at 200 ug/ml incubated for 48 hrs by ELISA analysis; format: ADME, cell-based; details: nih/3t3, 48 h, dose 200 µg/ml
# Mucor circinelloides [31] = test: Antifungal activity against Mucor circinelloides R7B wild type strain assessed as few mycelia with several spores at 50 ug/ml by microscopic analysis; format: functional, organism-based; details: dose 50.0 µg/ml
# Mucor circinelloides [32] = test: Antifungal activity against Mucor circinelloides M5 strain assessed as few mycelia with several spores at 50 ug/ml by microscopic analysis; format: functional, organism-based; details: dose 50.0 µg/ml
# Mucor circinelloides [33] = test: Antifungal activity against Mucor circinelloides R7B wild type strain assessed as non-germinated spores and undifferentiated hyphae at 50 ug/ml by microscopic analysis; format: functional, organism-based; details: dose 50.0 µg/ml
# Mucor circinelloides [34] = test: Antifungal activity against Mucor circinelloides M5 strain assessed as non-germinated spores and undifferentiated hyphae at 50 ug/ml by microscopic analysis; format: functional, organism-based; details: dose 50.0 µg/ml
# Mucor circinelloides [35] = test: Antifungal activity against Mucor circinelloides R7B wild type strain assessed as complete absence of mycelia at 100 to 150 ug/ml by microscopic analysis; format: functional, organism-based; details: dose 100-150 µg/ml
# Mucor circinelloides [36] = test: Antifungal activity against Mucor circinelloides M5 strain assessed as complete absence of mycelia at 100 to 150 ug/ml by microscopic analysis; format: functional, organism-based; details: dose 100-150 µg/ml
# Mucor circinelloides [37] = test: Antifungal activity against Mucor circinelloides R7B wild type strain assessed as non-germinated spores at 100 to 150 ug/ml by microscopic analysis; format: functional, organism-based; details: dose 100-150 µg/ml
# Mucor circinelloides [38] = test: Antifungal activity against Mucor circinelloides M5 strain assessed as non-germinated spores at 100 to 150 ug/ml by microscopic analysis; format: functional, organism-based; details: dose 100-150 µg/ml
structure (smiles),measurement,setting,value
OC(Cn1cncn1)(Cn1cncn1)c1ccc(F)cc1F [FLUCONAZOLE],Activity,Mucor circinelloides [1],83.3%
same,Activity,Mucor circinelloides [2],72.6%
same,Activity,Mucor circinelloides [3],28.2%
same,Activity,Mucor circinelloides [4],30.4%
same,Activity,Mucor circinelloides [5],4.8%
same,Activity,Mucor circinelloides [6],6.7%
same,MIC,Microsporum canis [7],50 µg/mL
same,MIC,Microsporum canis [8],50 µg/mL
same,MIC,Microsporum canis [9],50 µg/mL
same,MIC,Nannizzia gypsea [10],50 µg/mL
same,MIC,Nannizzia gypsea [11],50 µg/mL
same,MIC,Mucor circinelloides [12],> 150 µg/mL
same,MIC,[13],75 µg/mL
same,MIC,[14],75 µg/mL
same,MIC,[15],75 µg/mL
same,MIC,Trichophyton rubrum [16],75 µg/mL
same,MIC,Trichophyton rubrum [17],75 µg/mL
same,MIC,Epidermophyton floccosum,50 µg/mL
same,MIC,Aspergillus nidulans [18],50 µg/mL
same,MIC,Aspergillus nidulans [19],50 µg/mL
same,MIC,Aspergillus niger,50 µg/mL
same,MIC,Mucor circinelloides [20],150 µg/mL
same,"viability at 48 h, 25 ug/ml",[21],98.2%
same,"viability at 48 h, 50 ug/ml",[22],25%
same,"viability at 48 h, 100 ug/ml",[23],18.8%
same,"viability at 48 h, 150 ug/ml",[24],15.5%
same,"viability at 48 h, 200 ug/ml",[25],15.7%
same,Activity,[26],12.8 U/mg
same,Activity,[27],7.18 U/mg
same,Activity,[28],2.49 U/mg
same,Activity,[29],1.25 U/mg
same,Activity,[30],0 U/mg
same,Activity,Mucor circinelloides [31],Active
same,Activity,Mucor circinelloides [32],Active
same,Activity,Mucor circinelloides [33],Active
same,Activity,Mucor circinelloides [34],Active
same,Activity,Mucor circinelloides [35],Active
same,Activity,Mucor circinelloides [36],Active
same,Activity,Mucor circinelloides [37],Active
same,Activity,Mucor circinelloides [38],Active

# Source: ChEMBL document CHEMBL5143615, “Novel 2-aryl-4-aryloxyquinoline-based fungistatics for Mucor circinelloides. Biological evaluation of activity, QSAR and docking study” (Bioorg Med Chem Lett, 2022)
